Data from patent US20090209536A1, “AMINOQUINAZOLINE CANNABINOID RECEPTOR MODULATORS FOR TREATMENT OF DISEASE” (KALYPSYS, INC., priority 2007, published 2009).
Where two headings read alike, the source gives them in different places.

Legend:
[1] = target: T1, human cannabinoid receptor type 2 (Homo sapiens, UniProt P34972); experiment: Human CB2 Radioligand Binding Assay; conditions: membranes from stably transfected CHO CB2 cells
T1 construct: expressed in transfected cells; membrane preparation
Summary of the method: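 Test compounds (10 uM final, or dose-response) competed with [3H]CP-55,940, used at the Kd determined per membrane lot, for binding to stable human CB2-CHO membranes over 90 min at 30° C in pH 7.4 Tris/EGTA/MgCl2/BSA buffer. GF/C filtration then scintillation counting; 100 nM CP-55,940 defined 100% efficacy.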

[2] = target: T2, human cannabinoid receptor type 1 (Homo sapiens, UniProt P21554); experiment: Human CB1 Radioligand Binding Assay (basis of selectivity, CB2 vs. CB1); conditions: CB1: HEK 293 EBNA cells expressing human CB1; CB2: CHO CB2 membranes
T2 construct: purchased Perkin Elmer RBHCB1M; host or cells: HEK 293 EBNA cells
Method: 2. Human CB1 Radioligand Binding Assay
The incubation buffer was composed of 50 mM Tris-HCl pH 7.4, 2.5 mM EDTA, 5 mM MgCl2, 5.0 mg/ml fatty acid free BSA and the wash buffer was composed of 50 mM Tris-HCl pH 7.4, 2.5 mM EDTA, 5 mM MgCl2, 0.5 mg/ml fatty acid free BSA.

[3] = competition with [3H] CP-55,940, read-out: CB2 Ligand Binding Asssay EC50

T2 sequence (P21554 whole entry): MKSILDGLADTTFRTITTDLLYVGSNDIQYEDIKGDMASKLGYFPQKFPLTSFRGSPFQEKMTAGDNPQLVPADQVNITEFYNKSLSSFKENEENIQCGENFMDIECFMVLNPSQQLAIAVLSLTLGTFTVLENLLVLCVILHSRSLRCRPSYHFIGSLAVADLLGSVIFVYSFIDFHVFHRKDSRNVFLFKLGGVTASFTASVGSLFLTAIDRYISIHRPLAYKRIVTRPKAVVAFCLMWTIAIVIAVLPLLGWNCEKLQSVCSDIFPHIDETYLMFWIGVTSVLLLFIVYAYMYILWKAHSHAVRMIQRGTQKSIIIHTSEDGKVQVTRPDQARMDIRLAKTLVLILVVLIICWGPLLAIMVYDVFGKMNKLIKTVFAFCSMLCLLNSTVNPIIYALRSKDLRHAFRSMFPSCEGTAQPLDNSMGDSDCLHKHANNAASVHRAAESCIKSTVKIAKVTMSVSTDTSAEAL
T1 sequence (P34972 whole entry): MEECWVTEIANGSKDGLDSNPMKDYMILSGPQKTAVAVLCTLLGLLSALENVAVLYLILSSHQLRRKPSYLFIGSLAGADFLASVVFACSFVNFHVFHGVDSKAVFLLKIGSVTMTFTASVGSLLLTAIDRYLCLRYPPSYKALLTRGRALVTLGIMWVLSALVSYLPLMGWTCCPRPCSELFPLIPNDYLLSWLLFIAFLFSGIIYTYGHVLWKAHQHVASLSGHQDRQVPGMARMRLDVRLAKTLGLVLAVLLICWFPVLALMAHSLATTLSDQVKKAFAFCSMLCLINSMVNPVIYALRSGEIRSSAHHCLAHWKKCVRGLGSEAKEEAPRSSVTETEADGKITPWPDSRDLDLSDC

| SMILES | EC50 [1, 3] | Selectivity, CB2 vs. CB1 [2] | EC50 ([1]; CB2 Ligand Binding Asssay EC50, competition with [3H] CP-55,940) |
| --- | --- | --- | --- |
| CCC(=O)N1CCN(c2nc(-c3ccccc3Cl)nc3ccccc23)CC1 [Example 98, 1-(4-(2-(2-Chlorophenyl)quinazolin-4-yl)piperazin-1-yl)propan-1-one] | < 1000 nM | + (+ indicates > 10−fold) |  |
| CC(=O)N1CCN(c2nc(-c3ccccc3Cl)nc3ccccc23)CC1 [Example 99, 1-(4-(2-(2-Chlorophenyl)quinazolin-4-yl)piperazin-1-yl)ethanone] | < 1000 nM | + (+ indicates > 10−fold) |  |
| CC1(C)C(C(=O)N2CCN(c3nc(-c4ccccc4Cl)nc4ccccc34)CC2)C1(C)C [Example 100, (4-(2-(2-Chlorophenyl)quinazolin-4-yl)piperazin-1-yl)(2,2,3,3-tetramethylcyclopropyl)methanone] |  | − (− indicates ≦ 10−fold) | > 1000 nM |
| CN(C)C(=O)C1CCN(c2nc(-c3ccccc3Cl)nc3ccccc23)CC1 [Example 102, 1-(2-(2-Chlorophenyl)quinazolin-4-yl)-N,N-dimethylpiperidine-4-carboxamide] | > 1000 nM | − (− indicates ≦ 10−fold) |  |
| O=C(N1CCN(c2nc(-c3ccccc3Cl)nc3ccccc23)CC1)C(F)(F)F [Example 103, 1-(4-(2-(2-Chlorophenyl)quinazolin-4-yl)piperazin-1-yl)-2,2,2-trifluoroethanone] | < 1000 nM | − (− indicates ≦ 10−fold) |  |
| FC(F)(F)CN1CCN(c2nc(-c3ccccc3Cl)nc3ccccc23)CC1 [Example 104, 2-(2-chlorophenyl)-4-(4-(2,2,2-trifluoroethyl)piperazin-1-yl)quinazoline] | < 1000 nM | − (− indicates ≦ 10−fold) |  |
| CCN1CCN(c2nc(-c3ccccc3Cl)nc3ccccc23)CC1 [Example 105, 2-(2-chlorophenyl)-4-(4-ethylpiperazin-1-yl)quinazoline] | < 1000 nM | + (+ indicates > 10−fold) |  |
| FC(F)(F)N1CCN(c2nc(-c3ccccc3Cl)nc3ccccc23)CC1 [Example 106, 2-(2-Chlorophenyl)-4-(4-(trifluoromethyl)piperazin-1-yl)quinazoline] | < 1000 nM | + (+ indicates > 10−fold) |  |
| CCCCN1CCN(c2nc(-c3ccccc3Cl)nc3ccccc23)CC1 [Example 107] | > 1000 nM | − (− indicates ≦ 10−fold) |  |
| CCCN1CCN(c2nc(-c3ccccc3Cl)nc3ccccc23)CC1 [Example 108, 2-(2-Chlorophenyl)-4-(4-propylpiperazin-1-yl)quinazoline] | < 1000 nM | + (+ indicates > 10−fold) |  |
| CN1CCN(c2nc(-c3ccc(C(C)(C)C)cc3)nc3ccccc23)CC1 [Example 109, 2-(4-tert-Butylphenyl)-4-(4-methylpiperazin-1-yl)quinazoline] | < 1000 nM | + (+ indicates > 10−fold) |  |
| CC(C)(C)c1ccc(-c2nc(N3CCCC3)c3ccccc3n2)cc1 [Example 110, 2-(4-tert-Butylphenyl)-4-(pyrrolidin-1-yl)quinazoline] | < 1000 nM | + (+ indicates > 10−fold) |  |
| CC(C)(C)c1ccc(-c2nc(N3CCCCC3)c3ccccc3n2)cc1 [Example 111, 2-(4-tert-Butylphenyl)-4-(piperidin-1-yl)quinazoline] | < 1000 nM | − (− indicates ≦ 10−fold) |  |
| CC(C)(C)c1ccc(-c2nc(N3CCOCC3)c3ccccc3n2)cc1 [Example 112, 4-(2-(4-tert-Butylphenyl)quinazolin-4-yl)morpholine] | < 1000 nM | − (− indicates ≦ 10−fold) |  |
| CN(Cc1ccccc1)c1nc(-c2ccc(C(C)(C)C)cc2)nc2ccccc12 [Example 113, N-Benzyl-2-(4-tert-butylphenyl)-N-methylquinazolin-4-amine] | > 1000 nM | − (− indicates ≦ 10−fold) |  |
| CC(C)(C)c1ccc(-c2nc(N3CCSCC3)c3ccccc3n2)cc1 [Example 114, 2-(4-tert-Butylphenyl)-4-thiomorpholin-4-ylquinazoline] | < 1000 nM | + (+ indicates > 10−fold) |  |
| CC(C)(C)c1ccc(-c2nc(Nc3ccc(F)cc3F)c3ccccc3n2)cc1 [Example 115, 2-(4-tert-Butylphenyl)-N-(2,4-difluorophenyl)quinazolin-4-amine] | > 1000 nM | − (− indicates ≦ 10−fold) |  |
| CN(c1ccc(F)cc1F)c1nc(-c2ccc(C(C)(C)C)cc2)nc2ccccc12 [Example 116, 2-(4-tert-Butylphenyl)-N-(2,4-difluorophenyl)-N-methylquinazolin-4-amine] | > 1000 nM | − (− indicates ≦ 10−fold) |  |
| CC(C)(C)c1ccc(-c2nc(Nc3ccc(F)c(F)c3)c3ccccc3n2)cc1 [Example 117, 2-(4-tert-Butylphenyl)-N-(3,4-difluorophenyl)quinazolin-4-amine] | < 1000 nM | − (− indicates ≦ 10−fold) |  |
| CN(c1ccc(C(C)(C)C)cc1)c1nc(-c2ccc(C(C)(C)C)cc2)nc2ccccc12 [Example 119, N,2-Bis(4-tert-butylphenyl)-N-methylquinazolin-4-amine] | > 1000 nM | − (− indicates ≦ 10−fold) |  |
| CN(Cc1ccccc1)c1nc(-c2ccc(Cl)cc2)nc2ccccc12 [Example 120, N-Benzyl-2-(4-chlorophenyl)-N-methylquinazolin-4-amine] | > 1000 nM | − (− indicates ≦ 10−fold) |  |
| Clc1ccc(-c2nc(NCc3ccccc3)c3ccccc3n2)cc1 [Example 121, N-Benzyl-2-(4-chlorophenyl)quinazolin-4-amine] | > 1000 nM | − (− indicates ≦ 10−fold) |  |
| CN1CCN(c2nc(-c3ccc(Cl)cc3)nc3ccccc23)CC1 [Example 122, 2-(4-Chlorophenyl)-4-(4-methylpiperazin-1-yl)quinazoline] | < 1000 nM | + (+ indicates > 10−fold) |  |
| Clc1ccc(-c2nc(N3CCc4ccccc4C3)c3ccccc3n2)cc1 [Example 123, 2-(4-Chlorophenyl)-4-(3,4-dihydro-1H-isoquinolin-2-yl)quinazoline] | > 1000 nM | − (− indicates ≦ 10−fold) |  |
| CC1CCCCN1c1nc(-c2ccc(Cl)cc2)nc2ccccc12 (stereo not shown) [Example 124, 2-(4-Chlorophenyl)-4-(2-methylpiperidin-1-yl)quinazoline] | > 1000 nM | − (− indicates ≦ 10−fold) |  |
| CC1CCN(c2nc(-c3ccc(Cl)cc3)nc3ccccc23)CC1 [Example 125, 2-(4-Chlorophenyl)-4-(4-methylpiperidin-1-yl)quinazoline] | < 1000 nM | − (− indicates ≦ 10−fold) |  |
| Clc1ccc(-c2nc(N3CCOCC3)c3ccccc3n2)cc1 [Example 126, 4-(2-(4-Chlorophenyl)quinazolin-4-yl)morpholine] | < 1000 nM | + (+ indicates > 10−fold) |  |
| Clc1ccc(-c2nc(N3CCCCC3)c3ccccc3n2)cc1 [Example 127, 2-(4-Chlorophenyl)-4-(piperidin-1-yl)quinazoline] | > 1000 nM | − (− indicates ≦ 10−fold) |  |
| Clc1ccc(-c2nc(N3CCCC3)c3ccccc3n2)cc1 [Example 128, 2-(4-Chlorophenyl)-4-(pyrrolidin-1-yl)quinazoline] | < 1000 nM | + (+ indicates > 10−fold) |  |
